The text below walks through data of patent publication US20240207282A1, “METHOD OF INCREASING CHAPERONE MEDIATED AUTOPHAGY BY STABILIZING THE INTERACTION OF RETINOIC ACID RECEPTOR-ALPHA AND AN INHIBITOR” (ALBERT EINSTEIN COLLEGE OF MEDICINE, priority 2021, published 2024).

Molecules are shown by their SMILES.

As usually defined, the half-life is the time needed for the level to fall by half in the phase considered.

The subject of one data set is human cells. Description: CMA activity, KFERQ-PS-Dendra reporter in human cells. In kind it is cell-based. As for the experimental part: Cells: NIH3T3 mouse fibroblasts and the N2a neuroblastoma cell line were obtained from the American Type Culture Collection and were validated by genomic PCR. Primary human fibroblasts (GM01651) were from Coriell Repository. All the cells lines were tested for mycoplasma contamination using DNA staining protocol with Hoechst 33258 dye. Knock-down of NCoR1 was done using lentiviral mediated shRNA (SHCLNG-NM_011308) from the Sigma Mission library following standard procedures. Efficiency of knock-down was tested by immunoblot. Cell viability was measured using the CellTiter-Blue kit (Promega) 24 h after the addition of the different stressors according to manufacturer's instructions.
CMA activity: Cells were transduced with lentivirus carrying the KFERQ-PS-Dendra reporter as before. Cells were photoactivated by exposure to a 3.5 mA (current constant) light emitting diode (LED: Norlux, 405 nm) for 3 min and then plated in glass-bottom 96 well plates. At the desired times, cells were fixed with 4% PFA and imaged using high-content microscopy (Operetta system, Perkin Elmer). Images were quantified using the manufacturer's software in a minimum of 1,200 cells in 9 independent fields per well. […] To avoid con-funding effects for drug-induced changes in cell volume or adherence to the plate that could bring a fraction of the cells per field outside of focus, we set a threshold to count only cells that have at least 1/10 of the average number of […] detected in the untreated wells for each cell type (3-4 puncta/cell in the case of NIH3T3 and N2a cells and 5 puncta/cell in primary human fibroblasts). […] Slices were mounted in DAPI-Fluoromount-G to highlight the cell nucleus and allow quantification of puncta per cell. Images were acquired in x-y-z planes with an Axiovert 200 fluorescence microscope (Carl Zeiss Ltd) with a ×63 objective and 1.4 numerical aperture, mounted with an ApoTome.2 slider or with a Confocal microscope (TCS SP5; Leica) using an HCX Plan Apo CS×63.0 1.40 NA oil objective and the Leica Application Suite X (LAS X).

Another data set deals with CMA network. Description: Comparative transcriptomic analysis / qPCR of CMA network. The class given is cell-based, mouse. The conditions noted are these: for changes in the transcriptome: treated cells. As for the experimental part: mRNA-qPCR: RNA was extracted from individual retinas. Total RNA from retinas was extracted using TRIzol Reagent (Invitrogen), and reverse transcription performed using the High-Capacity cDNA Reverse Transcription Kit (Applied Biosystems) according to the manufacturer's instructions. Quantitative real-time PCR was performed in a Light Cycler 480 Instrument (Roche) with Taqman Universal PCR Master Mix using Taqman assays (Life Tech-nologies). The following probes were used: Mm01184405_m1 (rhodopsin), F-5′-CTTAGCTTCTGGGATGC CCC-3′, R-5′-[…]-3′ (lamp2a) F-5′-AA GGACTCCTA TAGTGGG TGACGA-3′, R-5′-[…]-3′ (mouse β-actin).
Microarray: Total RNA of the treated cells was extracted using TRIzol (Invitrogen) and purified with RNeasy chromatography (Qiagen). Cy3-labeled RNA (0.6 μg) from each condition were hybridized to Agilent Mouse 8×60K. Data were processed using the oligo package and normalized using Robust Multiarray Average (RMA) method. Gene set was filtered to remove genes without Entrez or GO annotation (21912 genes out of 55682) and genes with an […]. The full microarray Gomez-Sintes et al. raw data will be deposited in GEO upon acceptance of the manuscript. Pathway analysis was performed using the STRING database ([…]).
CMA index was calculated using data set from Ly (J. Proteome Research (2016) 15: 1350-1359), Gao (2020), and Lane (2020). Briefly, each element of the CMA network was attributed a weight. As LAMP-2A is the rate limiting component of CMA, it was given a weight of 2. Every other element received a weight of 1. Then, every element was attributed direction score that is +1 or −1 based on the known effect of a given element on CMA activity. The score was then calculated as the weighted/directed average of expression counts of every element of the CMA network.

A further data set concerns NIH3T3. In words: Intracellular proteolysis of long half-life proteins (3H-leucine). The class given is cell-based, mouse. The conditions noted are these: 10 μM; duration of increase after addition. Here is the method:
Proteolysis was calculated from aliquots of the medium taken at different times and precipitated in trichloroacetic acid, as the amount of acid-precipitable radioactivity transformed to acid-soluble radioactivity at each time.

Data set [1] is described as follows: Chronic toxicity in mice (blood count, histopathology). In kind it is in vivo. Conditions: chronic (5 months) daily oral administration. As for the experimental part: Liver, lung and kidneys from CA-treated animals were dissected and fixed in 1% PFA overnight and paraffin embedded. Tissues were sectioned, stained with hematoxylin and eosin (H&E) and analyzed by an expert pathologist, blind to the treatment groups, to score for possible presence of toxicity in these organs. Scoring 1-6 was used assigning 6 to those observations clinically relevant. Individual scoring per parameter and per organ and average scoring per organ were performed. Blood cell count in the groups of mice administered vehicle or CA was analyzed in tail blood drawn monthly and at the moment of tissue dissection using an Oxford Science Forcyte Blood Analysis Unit.

Data set [2] can be described thus: Pharmacokinetics in mice (plasma and brain). The conditions noted are these: male, ICR (CD-1), mouse, po, administered orally. The class given is in vivo, mouse. As for the experimental part: ICR (CD-1) male mice were fasted at least three hours and water was available ad libitum before the study. Animals were housed in a controlled environment, target conditions: temperature 18 to 29° C., relative humidity 30 to 70%. Temperature and relative humidity was monitored daily. An electronic time controlled lighting system was used to provide a 12 hr light/12 hr dark cycle. 3 mice for each indicated time point were administered 30 mg/Kg CA39 or CA77 by oral gavage or 1 mg/Kg CA39 or CA77 by intravenous injection using 30% PEG-400, 65% D5W (5% dextrose in water), 5% Tween-80 vehicle. Mice were sacrificed, and brain samples were harvested at 0 hr, 0.25 hr, 0.5 hr, 1 hr, 2 hr, 4 hr, 8 hr, 24 hr, and analyzed for CA39 or CA77 levels using LC-MS/MS. Pharmacokinetics parameters were calculated using Phoenix WinNonlin 6.3. Experiments performed at SIMM-SERVIER joint Biopharmacy Laboratory.

A further data set has as its target T1, cellular RARα and NCoR1 (Mus musculus, UniProt P11416).
T1 construct: endogenous in cells; host or cells: NIH3T3
Description: Streptavidin pulldown of RARα and NCoR1 with biotinylated CA compound. In kind it is binding. Conditions: NIH3T3, 10 μM, 24 h.

T1 sequence (P11416 whole entry): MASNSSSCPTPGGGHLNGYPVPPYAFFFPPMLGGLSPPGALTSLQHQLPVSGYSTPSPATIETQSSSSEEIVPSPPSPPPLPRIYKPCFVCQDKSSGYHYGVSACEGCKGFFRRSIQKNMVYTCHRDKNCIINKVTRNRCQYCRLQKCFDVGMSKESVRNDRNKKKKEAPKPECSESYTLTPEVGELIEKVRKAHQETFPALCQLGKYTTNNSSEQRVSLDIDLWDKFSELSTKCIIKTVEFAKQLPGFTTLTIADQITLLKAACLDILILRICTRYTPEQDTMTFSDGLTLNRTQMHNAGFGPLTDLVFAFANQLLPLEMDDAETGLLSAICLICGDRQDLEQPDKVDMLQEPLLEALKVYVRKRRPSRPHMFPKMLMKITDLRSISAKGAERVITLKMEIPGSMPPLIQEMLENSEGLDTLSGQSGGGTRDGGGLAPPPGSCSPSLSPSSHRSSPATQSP
T1 sequence (Q60974 whole entry partner): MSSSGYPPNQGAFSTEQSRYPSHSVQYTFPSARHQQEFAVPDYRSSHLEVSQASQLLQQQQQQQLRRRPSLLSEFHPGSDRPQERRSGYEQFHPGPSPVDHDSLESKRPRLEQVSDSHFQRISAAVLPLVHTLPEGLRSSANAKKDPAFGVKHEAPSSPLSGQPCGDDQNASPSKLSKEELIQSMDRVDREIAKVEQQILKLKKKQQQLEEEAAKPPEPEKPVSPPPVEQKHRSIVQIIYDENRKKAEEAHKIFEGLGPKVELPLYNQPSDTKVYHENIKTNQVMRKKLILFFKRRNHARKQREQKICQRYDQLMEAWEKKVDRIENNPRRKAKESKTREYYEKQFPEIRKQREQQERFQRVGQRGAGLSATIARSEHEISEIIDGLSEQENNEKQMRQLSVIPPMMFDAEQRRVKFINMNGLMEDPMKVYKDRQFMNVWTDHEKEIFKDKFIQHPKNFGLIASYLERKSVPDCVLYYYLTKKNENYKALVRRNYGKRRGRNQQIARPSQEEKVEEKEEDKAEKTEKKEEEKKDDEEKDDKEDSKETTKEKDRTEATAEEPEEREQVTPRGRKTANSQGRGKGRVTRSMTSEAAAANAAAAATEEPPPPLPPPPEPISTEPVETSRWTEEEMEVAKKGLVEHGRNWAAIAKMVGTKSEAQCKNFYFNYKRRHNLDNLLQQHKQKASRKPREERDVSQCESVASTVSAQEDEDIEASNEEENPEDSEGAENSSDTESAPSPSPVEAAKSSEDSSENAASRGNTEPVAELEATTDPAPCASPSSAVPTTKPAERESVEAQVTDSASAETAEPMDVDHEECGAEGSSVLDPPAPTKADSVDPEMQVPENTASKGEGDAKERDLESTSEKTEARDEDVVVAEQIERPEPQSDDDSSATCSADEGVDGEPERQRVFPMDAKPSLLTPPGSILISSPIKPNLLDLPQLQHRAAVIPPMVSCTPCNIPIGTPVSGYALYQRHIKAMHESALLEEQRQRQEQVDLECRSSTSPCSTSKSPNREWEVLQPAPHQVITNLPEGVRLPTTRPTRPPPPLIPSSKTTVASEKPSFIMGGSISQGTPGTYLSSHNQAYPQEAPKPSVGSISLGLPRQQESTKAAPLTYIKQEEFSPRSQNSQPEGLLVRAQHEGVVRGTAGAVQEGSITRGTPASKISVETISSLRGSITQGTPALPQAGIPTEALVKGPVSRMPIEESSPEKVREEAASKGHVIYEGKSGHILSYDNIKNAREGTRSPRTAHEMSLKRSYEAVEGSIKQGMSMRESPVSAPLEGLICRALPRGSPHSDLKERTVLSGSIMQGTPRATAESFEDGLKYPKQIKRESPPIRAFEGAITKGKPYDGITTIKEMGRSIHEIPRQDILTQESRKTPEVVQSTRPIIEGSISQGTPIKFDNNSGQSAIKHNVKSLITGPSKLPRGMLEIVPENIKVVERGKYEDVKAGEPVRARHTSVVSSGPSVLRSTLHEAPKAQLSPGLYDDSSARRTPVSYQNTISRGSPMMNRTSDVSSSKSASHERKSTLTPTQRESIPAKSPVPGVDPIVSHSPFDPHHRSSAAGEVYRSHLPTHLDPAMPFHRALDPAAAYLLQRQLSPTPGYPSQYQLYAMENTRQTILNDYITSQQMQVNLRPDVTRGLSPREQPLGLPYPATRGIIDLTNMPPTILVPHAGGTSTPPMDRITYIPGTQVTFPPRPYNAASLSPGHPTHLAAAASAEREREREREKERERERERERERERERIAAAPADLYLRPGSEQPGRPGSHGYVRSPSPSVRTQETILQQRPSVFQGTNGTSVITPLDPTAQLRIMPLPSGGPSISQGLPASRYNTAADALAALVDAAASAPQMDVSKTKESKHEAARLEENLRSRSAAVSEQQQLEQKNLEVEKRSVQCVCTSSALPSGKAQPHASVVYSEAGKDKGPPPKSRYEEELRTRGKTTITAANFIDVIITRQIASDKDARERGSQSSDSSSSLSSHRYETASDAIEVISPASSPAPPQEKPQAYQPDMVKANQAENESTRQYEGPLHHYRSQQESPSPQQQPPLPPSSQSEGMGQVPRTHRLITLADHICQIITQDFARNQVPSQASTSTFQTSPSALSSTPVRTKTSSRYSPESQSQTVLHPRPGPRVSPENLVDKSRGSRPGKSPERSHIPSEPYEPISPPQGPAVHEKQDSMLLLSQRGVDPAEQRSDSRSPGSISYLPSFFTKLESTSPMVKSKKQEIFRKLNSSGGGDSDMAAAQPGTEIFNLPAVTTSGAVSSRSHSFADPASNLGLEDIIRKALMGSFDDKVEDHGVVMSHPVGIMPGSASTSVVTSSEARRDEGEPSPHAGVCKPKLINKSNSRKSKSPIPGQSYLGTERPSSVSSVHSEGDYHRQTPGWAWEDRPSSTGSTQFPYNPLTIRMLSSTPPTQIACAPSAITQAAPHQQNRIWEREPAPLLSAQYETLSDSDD

On to `Cc1ccc(C2=Nc3ccc(Cl)cc3OC2)cc1` [AR7, reference compound], for which the CMA activation result in the data set with human cells is “very discrete”. In the data set on CMA network (of the 17 currently accepted components), the “number of CMA network components with changed expression” value is 8. In the data set on CMA network, the “changes in the transcriptome” value is reported as “only induced changes in the expression of a discrete fraction of genes”. Besides, in the data set with NIH3T3, the “intracellular rates of degradation of long-lived proteins” value was “sustained only for the first 12 h after addition of the compound”.

As for `CC(=O)Nc1ccc(-c2cnc3cc(Cl)ccc3n2)cc1` [CA77.1], in data set [1], the “peripheral blood or major organ toxicity” value is “lack of peripheral blood or major organ (liver, lung, kidney) toxicity”. Further, the Kp in data set [2] (brain/plasma, read-out: AUC brain/plasma) was 5.73. For the same compound, the half-life in data set [2] (plasma, read-out: Plasma half-life (converted)) was 3 h.

For `O=C(CCCC[C@H]1SCC2NC(=O)NC21)NCCCOCCOCCOCCCNC(=O)c1ccc(C2=Nc3ccc(Cl)cc3OC2)cc1` (stereo partly drawn) [biotinylated CA compound], the “co-immunoprecipitation of cellular RARα and NCoR1” value at cellular RARα and NCoR1 is “could be co-immunoprecipitated”.

For the compound `CC1(C)CC=C(c2cnc3ccccc3c2)c2cc(C(=O)Nc3ccc(C(=O)O)cc3)ccc21` [BMS614], in the data set on CMA network, the “changes in the transcriptome” value is “marked changes in the transcriptome”.
